Laboratory results reported in the NIST ThermoML archive (doi:10.1016/j.tca.2017.06.023).

Key:
[1] = xn = mol fraction of the nth substance listed; details: 100 kPa, Liquid; for viscosity: Capillary tube (Ostwald / Ubbelohde) method; for speed of sound: Frequency=3 MHz, Sing-around technique in a fixed-path interferometer; for mass density: Vibrating tube method
[2] = refractive index (Na D-line) (dimensionless); xn = mol fraction of the nth substance listed; details: 100 kPa, Liquid, Standard Abbe refractometry

CC(=O)N(C)C [N,N-dimethylethanamide] + CC(C)O
Details	mass density, [1] [kg/m3]	refractive index, [2]	speed of sound, [1] [m/s]	viscosity, [1] [mPa·s]
283.15 K, x1 = 0.0551	803.7	1.38572	1214.1	2.752
283.15 K, x1 = 0.1091	813.5	1.38973	1234.9	2.354
283.15 K, x1 = 0.2113	831.42	1.39698	1271.8	1.896
283.15 K, x1 = 0.3066	847.5	1.40342	1303.6	1.643
283.15 K, x1 = 0.4084	864.09	1.40997	1336.4	1.476
283.15 K, x1 = 0.5049	879.33	1.4159	1366.7	1.392
283.15 K, x1 = 0.6056	894.73	1.42182	1398.1	1.305
283.15 K, x1 = 0.7028	909.13	1.42729	1427.9	1.272
283.15 K, x1 = 0.8024	923.39	1.43267	1458.5	1.246
283.15 K, x1 = 0.8956	936.27	1.43751	1486.3	1.213
283.15 K, x1 = 0.9464	943.08	1.44007	1501.5	1.205
283.15 K, x1 = 1	950.13	1.44273	1516.8	1.168
298.15 K, x1 = 0.0551	791.24	1.37924	1160.6	1.793
298.15 K, x1 = 0.1091	800.93	1.38322	1180.6	1.598
298.15 K, x1 = 0.2113	818.64	1.39042	1215.9	1.355
298.15 K, x1 = 0.3066	834.52	1.3968	1247.4	1.214
298.15 K, x1 = 0.4084	850.94	1.40331	1279.7	1.117
298.15 K, x1 = 0.5049	866.02	1.40919	1309.3	1.057
298.15 K, x1 = 0.6056	881.3	1.41506	1338.8	1.017
298.15 K, x1 = 0.7028	895.59	1.42049	1369.3	0.993
298.15 K, x1 = 0.8024	909.75	1.42581	1399.3	0.977
298.15 K, x1 = 0.8956	922.53	1.43061	1426.5	0.956
298.15 K, x1 = 0.9464	929.3	1.43317	1441.3	0.949
298.15 K, x1 = 1	936.29	1.43579	1453.7	0.93
313.15 K, x1 = 0.0551	778.1	1.37249	1107.6	1.223
313.15 K, x1 = 0.1091	787.72	1.37646	1127.3	1.129
313.15 K, x1 = 0.2113	805.29	1.38365	1162.2	1.008
313.15 K, x1 = 0.3066	821.08	1.39004	1193.5	0.933
313.15 K, x1 = 0.4084	837.39	1.39653	1225.2	0.879
313.15 K, x1 = 0.5049	852.41	1.40242	1254.2	0.849
313.15 K, x1 = 0.6056	867.62	1.40827	1282.9	0.828
313.15 K, x1 = 0.7028	881.85	1.4137	1313.2	0.809
313.15 K, x1 = 0.8024	895.96	1.41903	1342.1	0.795
313.15 K, x1 = 0.8956	908.71	1.42383	1368.5	0.779
313.15 K, x1 = 0.9464	915.46	1.42638	1382.5	0.772
313.15 K, x1 = 1	922.43	1.42901	1393.3	0.764

CC(=O)N(C)C [N,N-dimethylethanamide] + CCC(C)O
Details	mass density, [1] [kg/m3]	refractive index, [2]	speed of sound, [1] [m/s]	viscosity, [1] [mPa·s]
283.15 K, x1 = 0.062	823.15	1.40382	1280.8	4.37
283.15 K, x1 = 0.0926	827.08	1.40505	1288	3.888
283.15 K, x1 = 0.2101	842.13	1.4098	1314.5	2.795
283.15 K, x1 = 0.3084	854.75	1.41377	1337	2.363
283.15 K, x1 = 0.4084	867.81	1.41785	1360.1	2.043
283.15 K, x1 = 0.5009	880.22	1.42168	1382.3	1.833
283.15 K, x1 = 0.6002	893.87	1.42583	1407.2	1.662
283.15 K, x1 = 0.7001	907.96	1.43002	1433	1.518
283.15 K, x1 = 0.8035	922.69	1.43437	1461.3	1.418
283.15 K, x1 = 0.9004	936.39	1.43847	1488.8	1.318
283.15 K, x1 = 0.9572	944.31	1.44089	1505	1.258
283.15 K, x1 = 1	950.13	1.44273	1516.8	1.168
298.15 K, x1 = 0.062	810.77	1.39766	1226.5	2.545
298.15 K, x1 = 0.0926	814.69	1.39889	1233.5	2.345
298.15 K, x1 = 0.2101	829.59	1.40356	1259.8	1.839
298.15 K, x1 = 0.3084	842.09	1.40746	1281.4	1.593
298.15 K, x1 = 0.4084	855.06	1.41148	1303.8	1.427
298.15 K, x1 = 0.5009	867.31	1.41524	1324.9	1.316
298.15 K, x1 = 0.6002	880.82	1.41929	1349	1.233
298.15 K, x1 = 0.7001	894.7	1.42339	1374.8	1.151
298.15 K, x1 = 0.8035	909.23	1.42765	1402.4	1.066
298.15 K, x1 = 0.9004	922.74	1.43165	1428.8	1.02
298.15 K, x1 = 0.9572	930.54	1.43402	1443.3	0.967
298.15 K, x1 = 1	936.29	1.43579	1453.7	0.93
313.15 K, x1 = 0.062	797.87	1.39127	1172.2	1.587
313.15 K, x1 = 0.0926	801.76	1.39248	1179.1	1.501
313.15 K, x1 = 0.2101	816.61	1.39714	1205	1.274
313.15 K, x1 = 0.3084	829.07	1.40103	1226.2	1.146
313.15 K, x1 = 0.4084	841.93	1.40501	1247.8	1.048
313.15 K, x1 = 0.5009	854.12	1.40873	1268.8	0.979
313.15 K, x1 = 0.6002	867.53	1.41274	1292.5	0.927
313.15 K, x1 = 0.7001	881.27	1.4168	1317.7	0.888
313.15 K, x1 = 0.8035	895.63	1.42098	1345.2	0.857
313.15 K, x1 = 0.9004	909.02	1.42492	1370.2	0.819
313.15 K, x1 = 0.9572	916.72	1.42725	1384	0.791
313.15 K, x1 = 1	922.43	1.42901	1393.3	0.764
